Assay results: BindingDB's records for doi:10.1016/j.ejmech.2012.11.020 (North Maharashtra University, 2013)

Target: T1, Pancreatic alpha-amylase (Sus scrofa, UniProt P00690)
T1 sequence (P00690 whole entry): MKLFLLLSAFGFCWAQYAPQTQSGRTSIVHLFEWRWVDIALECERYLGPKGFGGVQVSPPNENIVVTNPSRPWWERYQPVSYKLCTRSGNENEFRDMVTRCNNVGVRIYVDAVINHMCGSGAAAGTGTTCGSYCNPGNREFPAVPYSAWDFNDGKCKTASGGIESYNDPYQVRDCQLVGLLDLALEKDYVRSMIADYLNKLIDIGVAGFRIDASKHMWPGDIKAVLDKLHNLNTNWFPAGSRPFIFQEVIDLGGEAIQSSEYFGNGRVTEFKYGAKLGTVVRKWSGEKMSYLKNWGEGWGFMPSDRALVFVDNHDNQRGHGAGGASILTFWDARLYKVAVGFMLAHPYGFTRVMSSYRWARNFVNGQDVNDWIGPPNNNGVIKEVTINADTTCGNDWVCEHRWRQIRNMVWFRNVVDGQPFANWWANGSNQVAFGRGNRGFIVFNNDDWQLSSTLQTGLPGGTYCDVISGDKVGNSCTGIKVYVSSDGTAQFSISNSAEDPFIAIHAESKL
Test: Inhibition of pig pancreatic alpha-amylase by Bernfeld method

Compound | IC50 [µM]
CCOc1ccc2nc(N=C(CC(=O)c3ccc(Cl)cc3)SC)sc2c1 | 17.9
CSC(CC(=O)c1ccc(Br)cc1)=Nc1nc2ccccc2s1 | 17.8
